Assay: in vitro
Conditions: human, hela cells, % viability

Compound	viability at 28.5 h, 10 µM [%]
Cc1nn(C)cc1C(=O)NC1CCCC1 [CBK057851]	112
Cc1nnc(SCCn2c(N3CC(C)CC(C)C3)nc3c2c(=O)n(C)c(=O)n3C)s1 (stereo not drawn) [CBK269419]	100
CN(C)CCn1c(=O)[nH]c2ncc(-c3ccco3)nc21 [CBK064251]	97.1
Cc1ccc(S(=O)(=O)N(CC(=O)Nc2ccc(Cl)cc2C)c2cccc(Cl)c2C)cc1 [CBK264021]	85.7
NC(=O)c1ccsc1NC(=O)C(F)(F)F [CBK010915]	96.4
O=C(Nc1ccc(Cl)cc1C(=O)O)c1ccccc1 [CBK269993]	87.5
O=C(Nc1ccccc1)c1onc2c1CCCC2 [CBK058703]	108
Cn1cc(CC(=O)N2CCN(c3ccccc3)CC2)c2ccccc21 [CBK200168]	95.8
COc1c2c(nc3ccccc13)OC(C(C)(O)CO)C2 (stereo not drawn) [CBK261506]	87.6
COC(=O)[C@@H](C)NC(=O)[C@H]1CN(C(=O)c2cccnc2)CCN1C(=O)NC(C)C [CBK289630]	104
COc1ccc(CO)cc1OCc1ccccc1 [CBK051334]	110
O=C(NCCCn1cc(Cl)cn1)N1CCCN(Cc2cccs2)CC1 [CBK307279]	105
Cc1ncc(CN2CCOC(c3cc(C(=O)NCC(C)C)c4ccccc4n3)C2)s1 (stereo not drawn) [CBK285897]	89.9
CCOC(=O)C1(C2CCCCC2)CCN(C(=O)c2cccc(C(F)(F)F)c2)CC1 [CBK136920]	91.7
CCc1cc(CNC(=O)C2CC3C=CC2C32CC2)on1 (stereo not drawn) [CBK282071]	102
O=C(COc1ccc(-c2cc(-c3ccccc3)c3cc(Cl)ccc3n2)cc1)N/N=C/c1ccc2ncccc2c1 [CBK263365]	95.8
COc1nc2nonc2nc1OC [CBK028544]	110
CNC(=O)c1cccc(NC(=O)c2ccc(C)nc2N2CCOCC2)c1 [CBK106223]	95.1
NC(=O)COc1ccc(CNC(=O)CN2CCCCCC2)cc1 [CBK306332]	87.6
c1nc(NCCCN2CCOCC2)c2c3c(sc2n1)CCCCC3 [CBK268236]	91.2
CCC(CN1CCCC1)NC(=O)C1CC(=O)Nc2ccccc21 (stereo not drawn) [CBK282757]	90.6
O=C(NCc1ccncc1)c1cc(-c2ccc(Cl)cc2)on1 [CBK116559]	85.7

Compound	viability at 28.5 h, 10 µM [%]
COC(=O)C1(Cc2ccccc2-c2ccncc2)CCNC1 (stereo not drawn) [CBK281435]	85.2
CCOC(=O)CN(Cc1ccccc1)Cc1cccc(OC)c1 [CBK126459]	96.4
O=C(O)c1cc(C=Cc2ccc(Cl)c([N+](=O)[O-])c2)nc2ccccc12 [CBK297495]	104
Cc1cc(SCC(=O)Nc2cccc3ccccc23)nc2c(C)cccc12 [CBK268005]	92.2
CCOc1ccc2nc(SCC(=O)Nc3c(C)n(C)n(-c4ccccc4)c3=O)sc2c1 [CBK267229]	95.5
O=C(Cc1c[nH]c2ccccc12)N1CCC2(CCCN(C(=O)c3c(F)cccc3F)C2)C1 (stereo not drawn) [CBK131605]	85.8
Cc1ccc(CN2C[C@@H](N)[C@H](c3cn(C)c4cnccc34)C2)o1 [CBK285180]	84.2
Cc1cnn(C2CCN(C(=O)CC3OCCc4ccccc43)CC2)c1 (stereo not drawn) [CBK304186]	93.6
CN(C)c1ccc(C(=O)N2C3CCC2CC(O)(c2ccco2)C3)cc1 (stereo not drawn) [CBK284117]	93.3
CC1CCN(C(=O)C2C3CCC4(CC(=O)c5ccccc5O4)C32)CC1 (stereo not drawn) [CBK284872]	98.7
O=C(CSc1ncnc2c1oc1ccccc12)NCc1ccccc1 [CBK287397]	101
COc1cccc2c1cc(C(=O)NCc1cc(C3CC3)[nH]n1)n2C [CBK283282]	80.4
O=C(O)c1ccc(N2C(=O)CC(N3CCN(c4cccc(C(F)(F)F)c4)CC3)C2=O)cc1 (stereo not drawn) [CBK287228]	93.3
O=C(c1cc(CO)ccn1)N(Cc1ccccn1)CC1CCCO1 (stereo not drawn) [CBK306820]	97
Cc1ccc(-n2c(SCC(=O)Nc3ccc(C)c([N+](=O)[O-])c3)nnc2-c2ccccc2O)c(C)c1 [CBK268769]	96.6
Cc1c(C(=O)O)sc2c1c(=O)n(Cc1ccccc1)c(=O)n2CCN(C)C [CBK286590]	95.3
CCOC(=O)CCCNC(=O)N1CCCC(C(=O)O)C1 (stereo not drawn) [CBK161374]	83.5
CCC(CC)C(=O)N1CC[C@H]2NC(=O)N(Cc3ccccc3)C(=O)[C@H]21 [CBK289291]	88.7
Cn1c(=O)c2c(ncn2CC(O)CO)n(C)c1=O (stereo not drawn) [CBK200637]	98.5
CCn1cncc1C(=O)Nc1ccc(-n2ccnc2C(C)C)cc1 [CBK281379]	95.8
CC(C)(CO)NC(=O)COc1ccc(Cl)cc1 [CBK261833]	103
CCCn1c(SCC(=O)Nc2scc(-c3cccs3)c2C(=O)OCC)n[nH]c1=O [CBK296967]	94.5

Same assay, conditions: human, hela cells, % viability, bulk resorufin, single well

Compound	viability at 28.5 h, 10 µM [%]
c1cc(-c2ccc3c(c2)COC2(CCNCC2)O3)c2cccnc2c1 [CBK060995]	104
